From patent publication US8440628B2, “Medical compositions containing ghrelin” (Daiichi Sankyo Company, Limited, priority 2002, dated 2013)
Read-outs that look alike come from different tables or passages of the source.

What was measured:
[1] = Stability of human ghrelin in citrate buffer solutions, 40°C/2 weeks (Example 4); type: physicochemical
Procedure: The obtained solutions were filled in brownish glass ampoules and the ampoules were sealed with fire, then, each ampoules were stored at 40±1° C. for 2 weeks. After storage for 2 weeks, the HPLC analysis of the solutions was conducted to calculate the residual ratio from the concentration of human ghrelin. The change of pH value was also measured.

[2] = type: physicochemical
Procedure: Human ghrelin, which is one of the ghrelins, was dissolved in the 0.05M glycine hydrochloride buffer solutions (pH 3.5) to obtain an aqueous solution containing human ghrelin with following five concentrations, which are applicable for medical usage.
0.03 nmol/mL (0.1 μg/mL); 0.3 nmol/mL (1.0 μg/mL);
3.0 nmol/mL (10.0 μg/mL); 0.3 μmol/mL (1.0 mg/mL);
Each solutions were stored at 25±2° C. for 24 hours, and after storage, the HPLC analyses of each solutions were conducted to calculate the residual ratios from the concentration of human ghrelin. The changes of pH value were also examined to confirm no significant changes of pH in solutions occurred.
The residual ratio of the solution before storage was referred to as 100%, and the residual ratio of each solution after storage and the changes of pH value of each solution were summarized in the following Table 4.

[3] = human ghrelin 0.5 mg/mL in citrate buffer solution pH 3.5, after storage for 40° C./2 weeks
[4] = human ghrelin 0.5 mg/mL in citrate buffer solution pH 3.5, just after preparation
[5] = human ghrelin 0.5 mg/mL in citrate buffer solution pH 4.0, after storage for 40° C./2 weeks
[6] = human ghrelin 0.5 mg/mL in citrate buffer solution pH 4.0, just after preparation
[7] = human ghrelin 0.5 mg/mL in citrate buffer solution pH 4.5, after storage for 40° C./2 weeks
[8] = human ghrelin 0.5 mg/mL in citrate buffer solution pH 4.5, just after preparation
[9] = human ghrelin 0.5 mg/mL in citrate buffer solution pH 5.0, after storage for 40° C./2 weeks
[10] = human ghrelin 0.5 mg/mL in citrate buffer solution pH 5.0, just after preparation
[11] = h. ghrelin 0.03 nmol/mL in 0.05M glycine hydrochloride buffer (pH 3.5), after storage for 25° C./24 hours
[12] = h. ghrelin 0.03 nmol/mL in 0.05M glycine hydrochloride buffer (pH 3.5), just after preparation
[13] = h. ghrelin 0.3 nmol/mL in 0.05M glycine hydrochloride buffer (pH 3.5), after storage for 25° C./24 hours
[14] = h. ghrelin 0.3 nmol/mL in 0.05M glycine hydrochloride buffer (pH 3.5), just after preparation
[15] = h. ghrelin 3.0 nmol/mL in 0.05M glycine hydrochloride buffer (pH 3.5), after storage for 25° C./24 hours
[16] = h. ghrelin 3.0 nmol/mL in 0.05M glycine hydrochloride buffer (pH 3.5), just after preparation
[17] = h. ghrelin 0.3 μmol/mL in 0.05M glycine hydrochloride buffer (pH 3.5), after storage for 25° C./24 hours
[18] = h. ghrelin 0.3 μmol/mL in 0.05M glycine hydrochloride buffer (pH 3.5), just after preparation
[19] = h. ghrelin 3 μmol/mL in 0.05M glycine hydrochloride buffer (pH 3.5), after storage for 25° C./24 hours
[20] = h. ghrelin 3 μmol/mL in 0.05M glycine hydrochloride buffer (pH 3.5), just after preparation

CCCCCCCC(=O)OC[C@H](NC(=O)[C@H](CO)NC(=O)CN)C(=O)N[C@@H](Cc1ccccc1)C(=O)N[C@@H](CC(C)C)C(=O)N[C@@H](CO)C(=O)N1CCC[C@H]1C(=O)N[C@@H](CCC(=O)O)C(=O)N[C@@H](Cc1c[nH]cn1)C(=O)N[C@@H](CCC(N)=O)C(=O)N[C@@H](CCCNC(=N)N)C(=O)N[C@H](C(=O)N[C@@H](CCC(N)=O)C(=O)N[C@@H](CCC(N)=O)C(=O)N[C@@H](CCCNC(=N)N)C(=O)N[C@@H](CCCCN)C(=O)N[C@@H](CCC(=O)O)C(=O)N[C@@H](CO)C(=O)N[C@@H](CCCCN)C(=O)N[C@@H](CCCCN)C(=O)N1CCC[C@H]1C(=O)N1CCC[C@H]1C(=O)N[C@@H](C)C(=O)N[C@@H](CCCCN)C(=O)N[C@@H](CC(C)C)C(=O)N[C@@H](CCC(N)=O)C(=O)N1CCC[C@H]1C(=O)N[C@@H](CCCNC(=N)N)C(=O)O)C(C)C [Human ghrelin]
Residual ratio [1, 3]: 89%
pH observed [1, 3]: 3.5
Residual ratio [1, 4]: 100%
pH observed [1, 4]: 3.6
Residual ratio [1, 5]: 88%
pH observed [1, 5]: 4.0
Residual ratio [1, 6]: 100%
pH observed [1, 6]: 4.0
Residual ratio [1, 7]: 86%
pH observed [1, 7]: 4.4
Residual ratio [1, 8]: 100%
pH observed [1, 8]: 4.5
Residual ratio [1, 9]: 85%
pH observed [1, 9]: 4.9
Residual ratio [1, 10]: 100%
pH observed [1, 10]: 5.0
Residual ratio [2, 11]: 62%
pH [2, 11]: 3.5
Residual ratio [2, 12]: 100%
pH [2, 12]: 3.4
Residual ratio [2, 13]: 98%
pH [2, 13]: 3.5
Residual ratio [2, 14]: 100%
pH [2, 14]: 3.5
Residual ratio [2, 15]: 98%
pH [2, 15]: 3.6
Residual ratio [2, 16]: 100%
pH [2, 16]: 3.5
Residual ratio [2, 17]: 101%
pH [2, 17]: 3.3
Residual ratio [2, 18]: 100%
pH [2, 18]: 3.4
Residual ratio [2, 19]: 101%
pH [2, 19]: 3.3
Residual ratio [2, 20]: 100%
pH [2, 20]: 3.4
